Test results reported in patent US20240342121A1, “THE USE OF BETA-HYDROXYBUTYRATES FOR THE TREATMENT OR PREVENTION OF ANEURYSMS AND DISSECTIONS” (priority 2021, published 2024).

How the values were obtained:
Assay type in all cases: cell-based
[1] = system: lysine β-hydroxybutyrylation (KβHB); test: Immunoblotting of lysine β-hydroxybutyrylation (KβHB) in SMCs; conditions: FIG. 15A
From the text: FIGS. 15A-15B show immunoblotting of lysine β-hydroxybutyrylation (KβHB) on whole cell lysate (WCL) and fractionated lysate. (b) Immunofluorescent staining of SMA, KβHB, and DAPI on abdominal aorta.
Since epigenetic regulation directly affects the activity of transcriptional factors, such as Oct4, we evaluated if βHB is related to histone remodeling. βHB is a substrate of acyltransferase resulting in β-hydroxybutyrylation, a unique posttranslational modification that controls protein activity or gene expression. We hypothesize that β-hydroxybutyrylation on histone induces histone remodeling facilitating cellular reprogramming. To determine that β-hydroxybutyrylation (KβHB) is observed in senescent SMCs or aneurysms, we applied a specific antibody detecting KβHB modified protein. […] Together, it is supposed that β-hydroxybutyryl histone triggers the reprogramming process of senescent SMCs by regulating Oct4, which is overexpressed in aneurysms.

[2] = system: Oct4 overexpressed senescent SMCs; test: Oct4 overexpressed senescent SMCs (SA β-Gal, Western blot)
From the text: FIGS. 14A-14B show (a) SA β-Gal activity on Oct4 overexpressed SMCs with or without βHB treatment (2 days). Irradiated SMCs were infected by Lentivirus containing Crispr-dCas9-VP64_Oct4 plasmid prior to treating βHB. The arrow indicates localized senescent cell mass. (b) Western blot analysis after lentivirus (Crispr-dCas9-VP64_Oct4) infection into senescent SMCs without βHB treatment for 1 day or 2 days.
We proposed that Oct4 upregulation in senescence forms senescent spheroid-like cell mass and asymmetric configuration of aneurysms. To validate our central hypothesis, we overexpressed Oct4 in senescent SMCs using the CRISPR-dCas9-VP64 system to determine the role of Oct4. […] Localized increase of senescence may be highly associated with asymmetric dilation of aneurysms. […] We supposed that βHB prevents or reverses Oct4-induced senescence of SMCs, consequently reducing the size of aneurysms. To investigate the role of βHB in aneurysms, we assess the possibility of cellular reprogramming in senescent SMCs in the condition of Oct4 overexpression. […] In particular, a moderate increase of FAP (Fibroblast Activation Protein) provides a potential for reprogramming resulting in transdifferentiation of SMCs to myofibroblast. Recovered SM22 expression in Oct4 overexpressed senescent SMCs supposed that βHB converts the Oct4 function in dedifferentiation into a reprogramming-related role. We considered an βHB-induced epigenetic alteration of senescent cells contributing to Oct4-dependent cellular reprogramming based on this unique observation.

senescent SMCs (SNC) = test: Caspase 3 activity assay on senescent SMCs; conditions: p53 inhibition by pifithirin-α, FIG. 2J
Description: FIGS. 2A-2L. (a) Cytotoxicity assay of normal smooth muscle cells (NS) and senescent smooth muscle cells (SMCs). Replicative senescent SMCs (RS) and premature senescent SMCs, stimulated by H2O2 (HP), arsenic (Ars), and Nutlin 3a (Nut) treatment were treated with βHB, s-βHB, and ABT-737. (b) Flow cytometry analysis of apoptosis by βHB or s-βHB in radiation (10 Gy)-induced senescent SMC. (c) Quantitation of apoptotic cell and senescent cell after treating βHB and s-βHB in radiation-induced senescent SMC. (d) Representative aorta image of AII-infused mice with post-treatment of ABT-737, βHB and s-βHB. (e) External diameter of abdominal aorta infused with AII and post-treated with ABT-737 βHB and s-βHB. (f) SA-βGal activity assay of the whole aorta infused with AII, and post-treated with ABT-737, KD, or KE. (g) Quantitation of senescent area on aorta of AII-infused mice, and post-treated with KD, KE and ABT-737. (h) TUNEL assay on the abdominal aorta of AII infused mice, and treated with ABT-737, βHB, or s-βHB. SM-α Actin (SMA) and DAPI are co-stained after TUNEL reaction. (i) Caspase 3 activity assay on normal SMCs (NC) treated with βHB, or s-βHB, and ABT-737 comparing to normal cells pretreated with Nutlin-3a. (j) Caspase 3 activity assay on senescent SMCs (SNC) treated with βHB, or s-βHB, and ABT-737 compared to senescent cells pretreated with pifithrin-α. […]

normal SMCs (NC) = test: Caspase 3 activity assay on normal SMCs; conditions: FIG. 2I
Description: FIGS. 2A-2L. (a) Cytotoxicity assay of normal smooth muscle cells (NS) and senescent smooth muscle cells (SMCs). Replicative senescent SMCs (RS) and premature senescent SMCs, stimulated by H2O2 (HP), arsenic (Ars), and Nutlin 3a (Nut) treatment were treated with βHB, s-βHB, and ABT-737. (b) Flow cytometry analysis of apoptosis by βHB or s-βHB in radiation (10 Gy)-induced senescent SMC. (c) Quantitation of apoptotic cell and senescent cell after treating βHB and s-βHB in radiation-induced senescent SMC. (d) Representative aorta image of AII-infused mice with post-treatment of ABT-737, βHB and s-βHB. (e) External diameter of abdominal aorta infused with AII and post-treated with ABT-737 βHB and s-βHB. (f) SA-βGal activity assay of the whole aorta infused with AII, and post-treated with ABT-737, KD, or KE. (g) Quantitation of senescent area on aorta of AII-infused mice, and post-treated with KD, KE and ABT-737. (h) TUNEL assay on the abdominal aorta of AII infused mice, and treated with ABT-737, βHB, or s-βHB. SM-α Actin (SMA) and DAPI are co-stained after TUNEL reaction. (i) Caspase 3 activity assay on normal SMCs (NC) treated with βHB, or s-βHB, and ABT-737 comparing to normal cells pretreated with Nutlin-3a. (j) Caspase 3 activity assay on senescent SMCs (SNC) treated with βHB, or s-βHB, and ABT-737 compared to senescent cells pretreated with pifithrin-α. (k) Western blot analysis for p53 and puma expression on abdominal aorta tissue from mice treated with AII or KE. (I) Immunohistochemistry staining for puma expression on abdominal aorta infused by AII and post-treated with KE.
To overcome the anti-apoptotic barrier of senescence cells, senolytics usually target p53/Bcl2 cascades. Moreover, p53 is considered as a barrier to prevent apoptosis in senescence cells. Therefore, it was investigated if βHB-mediated apoptosis is p53 dependent. […] To further validate p53 dependent apoptosis on AAA, p53 activation and puma expression were investigated. […] In addition, inflammatory response accompanying the apoptosis of senescence cells was observed specifically in the abdominal aorta tissue, while systemic inflammation decreased during ketotherapy (FIGS. 10A-F). […] Ketotherapy can lower the blood pressure caused by AII infusion, which is not the case with ABT-737 (FIGS. 10H-J).

SMILES: C[C@@H](O)CC(=O)O [βHB, (R)-3-Hydroxybutyrate]
- KβHB modified proteins, Western blot [1]: increases KβHB modified proteins
- SM22 and β-galactosidase in Oct4 overexpressed-senescent cells ([2]; Oct4 overexpressed, FIG. 14B): recovers SMC maturation marker (SM22) and reduced senescence marker (β-galactosidase)
- localized senescence, SA β-Gal activity ([2]; Oct4 overexpression by CRISPR-dCas9-VP64, FIG. 14A): significantly reverses or prevents the development of localized senescence
- SM22 in senescent SMCs without Oct4 activation ([2]; without Oct4 activation, FIG. 14B): does not recover SM22
- apoptosis with p53 inhibition (senescent SMCs (SNC)): did not induce apoptosis
- apoptosis in normal cells after p53 stabilization (normal SMCs (NC); after p53 stabilization by Nutlin 3a): triggers apoptosis
- apoptosis in normal cells (NC) (normal SMCs (NC); without Nutlin 3a): did not induce apoptosis
